Results taken from patent US6348435B1, “Substituted 2,4-diamino-1,3,5-triazine and their use as herbicides” (Bayer Aktiengesellschaft, priority 1997, dated 2002).

How the values were obtained:
[1] = system: weeds; experiment: Post-emergence test, summary on weeds; type: in vivo; conditions: result in words
Description: (§1) Solvent: 5 parts by weight of acetone
(§2) Emulsifier: 1 part by weight of alkylaryl polyglycol ether
(§3) To produce a suitable preparation of active compound, 1 part by weight of active compound is mixed with the stated amount of solvent, the stated amount of emulsifier is added and the concentrate is diluted with water to the desired concentration.
(§4) Test plants having a height of 5-15 cm are sprayed with the preparation of active compound such that the particular amounts of active compound desired are applied per unit area. The concentration of the spray liquor is chosen so that the particular amounts of active compound desired are applied in 1000 l of water/ha.
(§5) After three weeks, the degree of damage to the plants is rated in % damage in comparison with the development of the untreated control.
(§6) 0%=no effect (like untreated control)

[2] = system: Maize; experiment: Pre-emergence test/greenhouse; type: in vivo; conditions: for tolerance by crop plants, such as, for example, maize: pre-emergence test, result in words; for degree of damage to the plants, Maize: pre-emergence, 1000 g of ai./ha, rated after three weeks vs untreated control, 0%=no effect, 100%=total destruction
Description: (§7) Pre-emergence Test Solvent: 5 parts by weight of acetone Emulsifier: 1 part by weight of alkylaryl polyglycol ether To produce a suitable preparation of active compound, 1 part by weight of active compound is mixed with the stated amount of solvent, the stated amount of emulsifier is added and the concentrate is diluted with water to the desired concentration. Seeds of the test plants are sown in normal soil. After about 24 hours, the soil is sprayed with the preparation of active compound such that the particular amounts of active compound desired are applied per unit area. The concentration of the spray liquor is chosen so that the particular amounts of active compound desired are applied in 1000 l of water/ha. After three weeks, the degree of damage to the plants is rated in % damage in comparison with the development of the untreated control. The figures denote: 0%=no effect (like untreated control) 100%=total destruction

[3] = system: weeds; experiment: Pre-emergence test, summary on weeds; type: in vivo; conditions: result in words
Description: as §7

[4] = system: Amaranthus; experiment: Pre-emergence test/greenhouse; type: in vivo; conditions: 1000 g of ai./ha, rated after three weeks vs untreated control, 0%=no effect, 100%=total destruction
Description: as §7

[5] = system: Galium; experiment: Pre-emergence test/greenhouse; type: in vivo; conditions: 1000 g of ai./ha, rated after three weeks vs untreated control, 0%=no effect, 100%=total destruction
Description: as §7

[6] = system: Setaria; experiment: Pre-emergence test/greenhouse; type: in vivo; conditions: 1000 g of ai./ha, rated after three weeks vs untreated control, 0%=no effect, 100%=total destruction
Description: as §7

[7] = system: Sinapis; experiment: Pre-emergence test/greenhouse; type: in vivo; conditions: 1000 g of ai./ha, rated after three weeks vs untreated control, 0%=no effect, 100%=total destruction
Description: as §7

[8] = system: Sinapis; experiment: Post-emergence test/greenhouse; type: in vivo; conditions: 504 h, 1000 g of ai./ha, plants 5-15 cm sprayed, rated after three weeks vs untreated control, 0%=no effect, 100%=total destruction, read-out: degree of damage to the plants, Sinapis
Description: as §1, §2, §3, §4, §5, §6

[9] = system: Amaranthus; experiment: Post-emergence test/greenhouse; type: in vivo; conditions: 504 h, 1000 g of ai./ha, plants 5-15 cm sprayed, rated after three weeks vs untreated control, 0%=no effect, 100%=total destruction, read-out: degree of damage to the plants, Amaranthus
Description: as §1, §2, §3, §4, §5, §6

[10] = system: Abutilon; experiment: Post-emergence test/greenhouse; type: in vivo; conditions: 504 h, 1000 g of ai./ha, plants 5-15 cm sprayed, rated after three weeks vs untreated control, 0%=no effect, 100%=total destruction, read-out: degree of damage to the plants, Abutilon
Description: as §1, §2, §3, §4, §5, §6

[11] = system: Maize; experiment: Post-emergence test/greenhouse; type: in vivo; conditions: Zea mays, 504 h, 1000 g of ai./ha, plants 5-15 cm sprayed, rated after three weeks vs untreated control, 0%=no effect, 100%=total destruction, read-out: degree of damage to the plants, Maize
Description: as §1, §2, §3, §4, §5, §6

[12] = system: Setaria; experiment: Post-emergence test/greenhouse; type: in vivo; conditions: 504 h, 1000 g of ai./ha, plants 5-15 cm sprayed, rated after three weeks vs untreated control, 0%=no effect, 100%=total destruction, read-out: degree of damage to the plants, Setaria
Description: as §1, §2, §3, §4, §5, §6

[13] = system: Xanthium; experiment: Post-emergence test/greenhouse; type: in vivo; conditions: 1000 g of ai./ha, plants 5-15 cm sprayed, rated after three weeks vs untreated control, 0%=no effect, 100%=total destruction
Description: as §1, §2, §3, §4, §5, §6

Compound	action against weeds [1]	pest or weed control at 1000 g/ha [8] [%]	pest or weed control at 1000 g/ha [9] [%]	pest or weed control at 1000 g/ha [10] [%]	plant injury at 1000 g/ha [11] [%]	pest or weed control at 1000 g/ha [12] [%]	other results
CCc1nc(N)nc(NC(C)c2cccs2)n1 (stereo not shown) [Example 1, 2-amino-4-ethyl-6-(1-thien-2-yl-ethylamino)-1,3,5-triazine]	strong action						
CCc1nc(NC(C)=O)nc(NC(C)c2cccs2)n1 (stereo not shown) [Example 2, 2-acetylamino-4-ethyl-6-(1-thien-2-yl-ethyl-amino)-1,3,5-triazine]	strong action						melting point: 153 °C
CC(Nc1nc(N)nc(C(Cl)Cl)n1)c1cccs1 (stereo not shown) [Example 5]	strong action						melting point: 135 °C
CC(Cl)c1nc(N)nc(NC(C)c2cccs2)n1 (stereo not shown) [Example 6]	strong action						melting point: 125 °C
CCc1nc(N)nc(NC(CC)c2cccs2)n1 (stereo not shown) [Example 11]	strong action						
CCC(Nc1nc(N)nc(C(Cl)Cl)n1)c1cccs1 (stereo not shown) [Example 13]	strong action						
CCC(Nc1nc(N)nc(C(C)Cl)n1)c1cccs1 (stereo not shown) [Example 14]	strong action						
CCC(Nc1nc(N)nc(C(C)F)n1)c1cccs1 (stereo not shown) [Example 15]	strong action						tolerance by crop plants, such as, for example, maize [2]: tolerated very well; action against weeds [3]: strong action
CCC(Nc1nc(N)nc(C(F)C(F)(F)F)n1)c1cccs1 (stereo not shown) [Example 16]	strong action						
CCc1nc(NC(C)=O)nc(NC(CC)c2cccs2)n1 (stereo not shown) [Example 18]	strong action						
CCC(Nc1nc(NC(C)=O)nc(C(Cl)Cl)n1)c1cccs1 (stereo not shown) [Example 20]	strong action						melting point: 131 °C
CCC(Nc1nc(NC(C)=O)nc(C(C)Cl)n1)c1cccs1 (stereo not shown) [Example 21]	strong action						
CCC(Nc1nc(NC(C)=O)nc(C(C)F)n1)c1cccs1 (stereo not shown) [Example 22]	strong action						tolerance by crop plants, such as, for example, maize [2]: tolerated very well; action against weeds [3]: strong action
CCC(Nc1nc(NC(C)=O)nc(C(C)(Cl)Cl)n1)c1cccs1 (stereo not shown) [Example 24]	strong action						melting point: 113 °C
CCC(Nc1nc(N)nc(C(C)F)n1)c1cccs1 (stereo not shown) [drawing 223]							degree of damage to the plants, Amaranthus [4]: 100%; degree of damage to the plants, Galium [5]: 100%; degree of damage to the plants, Setaria [6]: 90%; degree of damage to the plants, Maize [2]: 0%
CCC(Nc1nc(NC(C)=O)nc(C(C)F)n1)c1cccs1 (stereo not shown) [drawing 224]							degree of damage to the plants, Sinapis [7]: 100%; degree of damage to the plants, Amaranthus [4]: 95%; degree of damage to the plants, Galium [5]: 100%; degree of damage to the plants, Setaria [6]: 100%; degree of damage to the plants, Maize [2]: 0%
CCc1nc(N)nc(NC(C)c2cccs2)n1 (stereo not shown) [drawing 225]		100	100	100	30		
CCc1nc(NC(C)=O)nc(NC(C)c2cccs2)n1 (stereo not shown) [drawing 226]		100	100	100	0	90	
CCc1nc(N)nc(NC(CC)c2cccs2)n1 (stereo not shown) [drawing 227]		100	100	100	30	100	
CCC(Nc1nc(N)nc(C(C)Cl)n1)c1cccs1 (stereo not shown) [drawing 228]		100	100	100	30	100	
CCC(Nc1nc(N)nc(C(C)F)n1)c1cccs1 (stereo not shown) [drawing 229]		100	100	100	0	100	
CCC(Nc1nc(N)nc(C(F)C(F)(F)F)n1)c1cccs1 (stereo not shown) [drawing 230]		100	100	100	10	100	
CCc1nc(NC(C)=O)nc(NC(CC)c2cccs2)n1 (stereo not shown) [drawing 231]		100	100	100	20	100	
CCC(Nc1nc(NC(C)=O)nc(C(Cl)Cl)n1)c1cccs1 (stereo not shown) [drawing 232]		100	100	100	0	100	
CCC(Nc1nc(NC(C)=O)nc(C(C)Cl)n1)c1cccs1 (stereo not shown) [drawing 233]		100	100	100	0	100	
CC(Nc1nc(N)nc(C(Cl)Cl)n1)c1cccs1 (stereo not shown) [drawing 234]		100	100	100		90	
CCC(Nc1nc(NC(C)=O)nc(C(C)F)n1)c1cccs1 (stereo not shown) [drawing 235]		100	100	100		100	
CC(Cl)c1nc(N)nc(NC(C)c2cccs2)n1 (stereo not shown) [drawing 236]			100	100	0		degree of damage to the plants, Xanthium [13]: 100%
CCC(Nc1nc(N)nc(C(Cl)Cl)n1)c1cccs1 (stereo not shown) [drawing 237]		100	100		10	100	degree of damage to the plants, Xanthium [13]: 80%
CCC(Nc1nc(NC(C)=O)nc(C(C)(Cl)Cl)n1)c1cccs1 (stereo not shown) [drawing 238]		100	100			100	degree of damage to the plants, Xanthium [13]: 100%
